{"source": "patent US11472791B2", "about": "(Incyte Corporation, priority 2019, dated 2022)", "molecular_target": "CDK2/Cyclin E1 (Homo sapiens (Human), UniProt P24941)", "assay": "CDK2/Cyclin E1 HTRF enzyme activity assay", "type": "biochemical", "conditions": "1 mM ATP", "protocol": "Assays are conducted in white 384-well polystyrene plates in a final reaction volume of 8 μL. […] HTRF signals are read after 1 hour at room temperature on a PHERAstar FS plate reader (BMG Labtech). Data is analyzed with IDBS XLFit and GraphPad Prism 5.0 software using a three or four parameter dose response curve to determine IC50 for each compound.", "data": [{"molecule": "CS(=O)(=O)N1CCCC(Nc2ncc(C(F)(F)F)c(-c3cnn(C4CCOCC4)c3)n2)C1", "note": "(racemic) [Example 19, (±)-N-(1-(Methylsulfonyl)piperidin-3-yl)-4-(1-(tetrahydro-2H-pyran-4-yl)-1H-pyrazol-4-yl)-5-(trifluoromethyl)pyrimidin-2-amine]", "values": [{"measurement": "IC50", "value": "500 to 1000", "unit": "nM"}]}, {"molecule": "C[C@H]1C[C@H](Nc2ncc(C(F)(F)F)c(-c3cnn(C4CCOCC4)c3)n2)CCN1S(C)(=O)=O", "note": "(racemic) [Example 21, (±)-N-((2S,4R)-2-Methyl-1-(methylsulfonyl)piperidin-4-yl)-4-(1-(tetrahydro-2H-pyran-4-yl)-1H-pyrazol-4-yl)-5-(trifluoromethyl)pyrimidin-2-amine]", "values": [{"measurement": "IC50", "value": "< 50", "unit": "nM"}]}, {"molecule": "CN1CCC(S(=O)(=O)N2CCC(Nc3ncc(C(F)(F)F)c(-c4cnn(CC(C)(C)O)c4)n3)CC2)C1", "note": "(racemic) [Example 86, (±)-2-Methyl-1-(4-(2-((1-((1-methylpyrrolidin-3-yl)sulfonyl)piperidin-4-yl)amino)-5-(trifluoromethyl)pyrimidin-4-yl)-1H-pyrazol-1-yl)propan-2-ol]", "values": [{"measurement": "IC50", "value": "< 50", "unit": "nM"}]}, {"molecule": "CC(O)(Cn1cc(-c2nc(NC3CCN(S(C)(=O)=O)CC3)ncc2C(F)(F)F)cn1)C(F)(F)F", "note": "(racemic) [Example 95, (±)-1,1,1-Trifluoro-2-methyl-3-(4-(2-((1-(methylsulfonyl)piperidin-4-yl)amino)-5-(trifluoromethyl)pyrimidin-4-yl)-1H-pyrazol-1-yl) propan-2-ol]", "values": [{"measurement": "IC50", "value": "< 50", "unit": "nM"}]}, {"molecule": "CS(=O)(=O)N1CCC(Nc2ncc(C#N)c(-c3cnn(-c4ccc(CNC5CCN(S(C)(=O)=O)C5)cc4Cl)c3)n2)CC1", "note": "(racemic) [Example 198, (±)-4-(1-(2-Chloro-4-(((1-(methylsulfonyl)pyrrolidin-3-yl)amino)methyl)phenyl)-1H-pyrazol-4-yl)-2-((1-(methylsulfonyl)piperidin-4-yl)amino)pyrimidine-5-carbonitrile]", "values": [{"measurement": "IC50", "value": "< 50", "unit": "nM"}]}, {"molecule": "CCS(=O)(=O)N1CCC(Nc2ncc(C#N)c(-c3cnn(-c4ccc(CN[C@@H]5CCCC[C@@]5(C)O)cc4Cl)c3)n2)CC1", "note": "(racemic) [Example 287, (±)-4-(1-(2-Chloro-4-((((1r,2r)-2-hydroxy-2-methylcyclohexyl)amino)methyl)phenyl)-1H-pyrazol-4-yl)-2-((1-(ethylsulfonyl)piperidin-4-yl)amino)pyrimidine-5-carbonitrile]", "values": [{"measurement": "IC50", "value": "< 50", "unit": "nM"}]}, {"molecule": "CN(C)C1CCC(S(=O)(=O)N2CCC(Nc3ncc(C(F)(F)F)c(-c4cnn(CC(C)(C)O)c4)n3)CC2)CC1", "note": "(single isomer, unassigned) [88 (peak 1), 1-(4-(2-((1-((4-(Dimethylamino)cyclohexyl)sulfonyl)piperidin-4-yl)amino)-5-(trifluoromethyl)pyrimidin-4-yl)-1H-pyrazol-1-yl)-2-methylpropan-2-ol]", "values": [{"measurement": "IC50", "value": "< 50", "unit": "nM"}]}, {"molecule": "CN(C)C1CCC(S(=O)(=O)N2CCC(Nc3ncc(C(F)(F)F)c(-c4cnn(CC(C)(C)O)c4)n3)CC2)CC1", "note": "(single isomer, unassigned) [88 (peak 2), 1-(4-(2-((1-((4-(Dimethylamino)cyclohexyl)sulfonyl)piperidin-4-yl)amino)-5-(trifluoromethyl)pyrimidin-4-yl)-1H-pyrazol-1-yl)-2-methylpropan-2-ol]", "values": [{"measurement": "IC50", "value": "< 50", "unit": "nM"}]}, {"molecule": "CCN(CC)C1CCC(S(=O)(=O)N2CCC(Nc3ncc(C(F)(F)F)c(-c4cnn(CC(C)(C)O)c4)n3)CC2)CC1", "note": "(single isomer, unassigned) [89 (peak 1), 1-(4-(2-((1-((4-(Diethylamino)cyclohexyl)sulfonyl)piperidin-4-yl)amino)-5-(trifluoromethyl)pyrimidin-4-yl)-1H-pyrazol-1-yl)-2-methylpropan-2-ol]", "values": [{"measurement": "IC50", "value": "< 50", "unit": "nM"}]}, {"molecule": "CCN(CC)C1CCC(S(=O)(=O)N2CCC(Nc3ncc(C(F)(F)F)c(-c4cnn(CC(C)(C)O)c4)n3)CC2)CC1", "note": "(single isomer, unassigned) [89 (peak 2), 1-(4-(2-((1-((4-(Diethylamino)cyclohexyl)sulfonyl)piperidin-4-yl)amino)-5-(trifluoromethyl)pyrimidin-4-yl)-1H-pyrazol-1-yl)-2-methylpropan-2-ol]", "values": [{"measurement": "IC50", "value": "< 50", "unit": "nM"}]}]}
